In PMC9089912, “Imaging articular cartilage in osteoarthritis using targeted peptide radiocontrast agents” (PLoS ONE, 2022):
“Also recorded” adds a separate entry of the source. Non-standard residues stand in square brackets, D forms with d. Residues, ends and D or L forms follow the SMILES beside them. Tyr(3,5-I2) = N[C@@H](Cc1cc(I)c(O)c(I)c1)C(=O)O; AEEA = NCCOCCOCC(=O)O

Columns and labels:
[1] = Ex vivo micro-CT contrast enhancement of murine articular cartilage: DIPIC vs PTA vs iopamidol; parameters: species or system mouse; conditions: 20 mg iodine/ml (PTA: 1% in 70% ethanol); for Thickness of cartilage assessed with the contrast agent: ex vivo mouse tibiae; for Thickness of cartilage assessed with the contrast agent / Difference in X-ray absorption between cartilage and background: micro-CT absorption profile; for X-ray absorption of background / X-ray absorption of cartilage / Difference in X-ray absorption between cartilage and background: overnight incubation of mouse tibiae (n = 3); for X-ray absorption of background / X-ray absorption of cartilage: mean ± SEM
Protocol: Ex vivo imaging with DIPIC, PTA or iopamidol. Mice were culled through inhalation of CO2 and their knee joints harvested and split under a dissection microscope. Tibiae (n = 3) were finely dissected to remove soft tissue and incubated overnight either in DIT peptide or iopamidol (Santa Cruz Biotechnology, Dallas, Texas, USA) at 20 mg iodine/ml (20 μl) or 1% PTA (Sigma) in 70% ethanol. To determine the contrast achieved in the articular cartilage at equilibrium, proximal tibiae were imaged by micro-CT while incubated in each contrast agent. […] Following imaging, tibiae were washed in saline and imaged in fresh saline until the articular cartilage could no longer be detected.
Generation of colour-coded absorption maps. To calibrate micro-CT scans in Hounsfield units (HU), air and water were scanned and reconstructed. The average grey level intensity within a cylindrical VOI was obtained from image histograms in ImageJ (air = -832.85, water = 152.54). Based on knowledge of the average grey level intensity and the corresponding HU (air = -1000, water = 0), the following linear transformation was derived (equation 2): […]
Using this calibration, the grey level intensity of each pixel was linearly transformed into X-ray absorption (HU) for each micro-CT image dataset using Matlab (R2014b, MathWorks, Natick, Massachusetts, USA). To enhance the difference between X-ray absorption of each tissue, colour-coded maps, also expressed in HU, were generated in Matlab by assigning a look up table (LUT) of 256 colours to each image dataset.

[2] = Solubility of purified DIT peptides at concentrations needed for radiocontrast; conditions: purified peptide (≥ 95% by HPLC), 10% DMSO/water, at 20 mg iodine/ml as well as 2 mg iodine/ml (lowest concentration for contrast)
Description: An integrated design, placing DIT into the core of WYRGRL (3) was followed by the addition of a further DIT at the N-terminus (4). […] To improve solubility, both arginine residues in 3 and 4 were replaced with lysine to give 5 and 6, respectively.

[3] = target: T1, murine articular cartilage (type II collagen) (Mus musculus, UniProt P28481); assay: Fluorescence histology of murine cartilage after intra-articular injection of DOTAM-Cy5.5 probes; assay type: in vivo; conditions: 24 h after intra-articular injection into mouse knee joints; probes of ref 20
T1 construct: Fixed cryosections of murine tibiae (10 µm) 24 h after intra-articular injection of Ac-WYRGRL-DOTAM-Cy5.5 or Ac-YRLGRW-DOTAM-Cy5.5; from tissue; host or cells: articular cartilage of the mouse knee joint (in vivo injection, histology of tibial cryosections)
Protocol: Fluorescence immunohistochemistry for localisation of Ac-WYRGRL-DOTAM-Cy5.5. Fixed cryosections of murine tibiae (10 µm) 24 h after intra-articular injection of Ac-WYRGRL-DOTAM-Cy5.5 or Ac-YRLGRW-DOTAM-Cy5.5 [1] were blocked with 10% goat serum, stained with rat anti-heparan sulfate proteoglycan antibody (A7L6, Abcam), washed three times with PBS-Tween 0.05% (v/v), labelled with Alexa Fluor 488 goat anti-rat IgG (H+L, Abcam) and washed three times with PBS-Tween 0.05% (v/v) before imaging. Cryosections were viewed under a Nikon TE2000-U Ultraview confocal microscope (PerkinElmer, Seer Green, UK) using a 488 nm excitation laser with 525 nm emission filter to visualise the Alexa Fluor 488 label (green false colour), and a 640 nm excitation laser with 700 nm emission filter to visualise the Cy5.5 label (red false colour).

T1 sequence (P28481 182-1241 limits assumed): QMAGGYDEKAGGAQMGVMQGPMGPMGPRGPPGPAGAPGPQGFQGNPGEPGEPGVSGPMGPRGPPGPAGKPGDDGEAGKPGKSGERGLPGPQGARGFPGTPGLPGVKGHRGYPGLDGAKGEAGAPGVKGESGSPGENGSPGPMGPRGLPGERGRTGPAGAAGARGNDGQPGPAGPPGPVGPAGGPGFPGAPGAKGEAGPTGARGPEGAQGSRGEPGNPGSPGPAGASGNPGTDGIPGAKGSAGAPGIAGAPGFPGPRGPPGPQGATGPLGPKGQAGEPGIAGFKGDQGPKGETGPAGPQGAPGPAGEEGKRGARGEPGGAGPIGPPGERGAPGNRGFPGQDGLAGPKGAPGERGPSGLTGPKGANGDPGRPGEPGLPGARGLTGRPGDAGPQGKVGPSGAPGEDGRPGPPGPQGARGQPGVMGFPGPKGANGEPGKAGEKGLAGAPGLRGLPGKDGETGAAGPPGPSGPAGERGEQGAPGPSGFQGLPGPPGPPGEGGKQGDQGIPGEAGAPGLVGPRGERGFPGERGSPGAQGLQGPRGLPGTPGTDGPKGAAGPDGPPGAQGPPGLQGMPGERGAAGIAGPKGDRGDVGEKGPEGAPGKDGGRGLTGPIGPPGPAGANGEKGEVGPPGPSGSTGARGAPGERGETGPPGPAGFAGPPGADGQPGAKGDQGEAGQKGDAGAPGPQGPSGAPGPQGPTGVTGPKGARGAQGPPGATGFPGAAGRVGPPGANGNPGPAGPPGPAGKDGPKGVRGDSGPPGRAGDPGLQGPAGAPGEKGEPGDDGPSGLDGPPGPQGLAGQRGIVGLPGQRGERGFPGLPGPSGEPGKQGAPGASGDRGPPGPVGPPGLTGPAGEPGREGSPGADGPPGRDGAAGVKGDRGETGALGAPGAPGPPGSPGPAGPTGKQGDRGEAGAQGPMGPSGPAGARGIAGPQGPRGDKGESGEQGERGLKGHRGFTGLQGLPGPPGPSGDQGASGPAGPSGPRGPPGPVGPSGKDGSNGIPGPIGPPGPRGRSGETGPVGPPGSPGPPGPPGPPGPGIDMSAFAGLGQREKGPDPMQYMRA

Molecule: O=P(O)(O)O.[O]=[W](=[O])=[O].[O]=[W](=[O])=[O].[O]=[W](=[O])=[O].[O]=[W](=[O])=[O].[O]=[W](=[O])=[O].[O]=[W](=[O])=[O].[O]=[W](=[O])=[O].[O]=[W](=[O])=[O].[O]=[W](=[O])=[O].[O]=[W](=[O])=[O].[O]=[W](=[O])=[O].[O]=[W](=[O])=[O] [PTA, phosphotungstic acid]
- Thickness of cartilage assessed with the contrast agent [1]: 110 μm
- X-ray absorption of background [1]: 342 ± 64 HU
- X-ray absorption of cartilage [1]: 3657 ± 253 HU
- Difference in X-ray absorption between cartilage and background [1]: 10.7 fold

Molecule: CC(C)C[C@H](NC(=O)[C@H](CCCNC(=N)N)NC(=O)CNC(=O)[C@H](CCCNC(=N)N)NC(=O)[C@H](Cc1cc(I)c(O)c(I)c1)NC(=O)[C@@H](N)Cc1c[nH]c2ccccc12)C(=O)O [compound 3] (H-W[Tyr(3,5-I2)]RGRL-OH)
- Solubility of pure peptide [2]: poor solubility

Molecule: CC(C)C[C@H](NC(=O)[C@H](CCCNC(=N)N)NC(=O)CNC(=O)[C@H](CCCNC(=N)N)NC(=O)[C@H](Cc1cc(I)c(O)c(I)c1)NC(=O)[C@H](Cc1c[nH]c2ccccc12)NC(=O)[C@@H](N)Cc1cc(I)c(O)c(I)c1)C(=O)O [compound 4] (H-[Tyr(3,5-I2)]W[Tyr(3,5-I2)]RGRL-OH)
- Solubility of pure peptide [2]: poor solubility

Molecule: CC(C)C[C@H](NC(=O)[C@H](CCCCN)NC(=O)CNC(=O)[C@H](CCCCN)NC(=O)[C@H](Cc1ccc(O)cc1)NC(=O)[C@H](Cc1c[nH]c2ccccc12)NC(=O)COCCOCCNC(=O)[C@H](Cc1cc(I)c(O)c(I)c1)NC(=O)[C@@H](N)Cc1cc(I)c(O)c(I)c1)C(=O)O [compound 12] (H-[Tyr(3,5-I2)][Tyr(3,5-I2)][AEEA]WYKGKL-OH)
- Solubility of pure peptide [2]: insoluble

Molecule: CC(C)C[C@H](NC(=O)[C@H](CCCCN)NC(=O)CNC(=O)[C@H](CCCCN)NC(=O)[C@H](Cc1cc(I)c(O)c(I)c1)NC(=O)[C@@H](N)Cc1c[nH]c2ccccc12)C(=O)NCCOCCOCC(=O)N[C@@H](Cc1cc(I)c(O)c(I)c1)C(=O)NCC(=O)O [compound 14] (H-W[Tyr(3,5-I2)]KGKL[AEEA][Tyr(3,5-I2)]G-OH)
- Solubility of pure peptide [2]: insoluble

Molecule: C[C@H](O)C(=O)Nc1c(I)c(C(=O)NC(CO)CO)c(I)c(C(=O)NC(CO)CO)c1I [iopamidol]
- Thickness of cartilage assessed with the contrast agent [1]: 70 μm
- X-ray absorption of background [1]: 875 ± 12 HU
- X-ray absorption of cartilage [1]: 678 ± 29 HU
- Difference in X-ray absorption between cartilage and background [1]: 0.8 fold

Molecule: CC(C)C[C@H](NC(=O)[C@H](CCCCN)NC(=O)CNC(=O)[C@H](CCCCN)NC(=O)[C@H](Cc1cc(I)c(O)c(I)c1)NC(=O)[C@H](Cc1c[nH]c2ccccc12)NC(=O)[C@@H](N)Cc1cc(I)c(O)c(I)c1)C(=O)O [peptide 6] (H-[Tyr(3,5-I2)]W[Tyr(3,5-I2)]KGKL-OH)
- Solubility of pure peptide [2]: insoluble in solution

Molecule: Ac-WYRGRL-DOTAM-Cy5.5 [targeting peptide conjugated to a macrocyclic DOTAM scaffold with a Cy5.5 fluorophore]
- Binding of probe to cartilage (Cy5.5 fluorescence histology) [3]: strong binding of the targeted probe to cartilage; also recorded: showed binding to cartilage

Molecule: Ac-YRLGRW-DOTAM-Cy5.5 [scrambled control peptide-DOTAM-Cy5.5 probe]
- Binding of probe to cartilage (Cy5.5 fluorescence histology) [3]: Only targeted probe (F) showed binding to cartilage
